Test results: patent US20230372374A1, “VETERINARY PHARMACEUTICAL FORMULATIONS” (INCREVET, INC., priority 2022, published 2023)
≈ marks a conversion by molar mass, not a printed value.

Experiments:
renal glucose reuptake [1] = experiment: Urinary glucose excretion in cats after capsule dosing; assay type: in vivo, cat
Experimental: The pharmacodynamics of inhibitors of renal glucose reuptake can be easily monitored by measurement of urinary glucose excretion (UGE). The sodium-linked glucose transporters SGLT1 and SGLT2 are expressed in the second and first segments, respectively, (pars recta and pars convoluta) of the renal proximal tubule.
As described above, 4 laboratory cats were administered bexagliflozin as either a blend with microcrystalline cellulose or as pure bexagliflozin, in each case in gelatin capsules. Bexagliflozin induced a significant glucosuria in healthy cats. At 3 mg kg^−1, total urinary glucose excreted over a period of 24 hours was 4.78 g (Table 14). […] Glucosuria following test article administration in the fasted state was higher than glucosuria following administration in the fed state (Table 14, bottom row).

renal glucose reuptake [2] = experiment: Urinary glucose excretion in cats after tablet dosing; assay type: in vivo, cat; details: healthy cats, tablets, corrected for assay
Experimental: A dose range-finding study was conducted with tablets prepared using a polacrilex resin slurry process. For the evaluation of pharmacodynamics, animals were fed canned food, to promote a constant daily urine volume and proper collection of urine samples. Water was supplied ad libitum.
All animals were administered test article at each dose level. The 2.5 mg dose was delivered as half of one 5 mg tablet cleaved with a pill cutter. The 5 mg dose was delivered as one 5 mg tablet per cat, the 10 mg dose was delivered as one 10 mg tablet per cat and the 30 mg dose was delivered as two 15 mg tablets per cat. For the pharmacokinetics study, test articles were dosed after the sampling of blood at pre-dose (0 h) time point. For the pharmacodynamics study, test articles were administered daily at 9:00-9:30 for four consecutive days and urine excreted by the animals for the last three days (after the dose and before next dose) was collected.
Collections were performed for three days to diminish the consequences of day-to-day variation of urine excretion. […] For convenience in referring to dose levels, the nominal dosages are used in this report, but calculations of dose-response relationships in mg kg^−1 were based on the measured bexagliflozin content.
The pharmacodynamics elicited by bexagliflozin delivered by tablets was also evaluated. […]

[3] = Pharmacokinetics in cats after capsule dosing; assay type: in vivo, cat
Experimental: Capsules were evaluated using cohorts of four laboratory cats that were administered test article at multiple dose levels. The test article was prepared in size 4 gelatin capsules and administered by mouth to animals that had been fasted 12 h. The capsules were loaded with 5% bexagliflozin (w/w) in microcrystalline cellulose for the 0.1, 0.3 and 1.0 mg kg^−1 dose levels, and with bexagliflozin alone for the 3.0 and 10.0 mg kg^−1 dose levels. The cats were provided with food ad libitum 2 hours after dosing.
Blood samples were collected from the acral vein at the scheduled time points. Samples of 0.1 to 0.3 mL were drawn into 1.5 mL tubes containing dipotassium EDTA as an anticoagulant. The samples were immediately mixed by gently inverting the tube approximately 8 times. Immediately following mixing, the tubes were placed on crushed ice and kept chilled until centrifugation. Samples were centrifuged within 1 hour of collection. Following centrifugation, the tubes were returned to crushed ice and supernatants transferred into microcentrifuge tubes and frozen. The tubes were stored frozen in a −20° C. freezer at the testing facility prior to shipment for analysis. Plasma bexagliflozin concentration was measured by an LC-MS/MS method. Separations were performed using an Agilent 1200 equipped with a Thermo Betasil C18 50×2.1 mm, 5 μm packing column or a Phenomenex Gemini C18 50×4.5 mm, 5 μm packing column. Analyte detection was performed with an ABI 4000 or AB Sciex QTRAP 5500 mass spectrometer.
The volume of distribution was relatively large, ranging from 5.5 to 11.9 L kg^−1, with no dose-dependent trend. […] The majority of the variation in half-life was attributable to variation in the volume of distribution, and the clearance was relatively constant at 1.46±0.24 L h^−1 kg^−1. The AUC0-24 was proportional to dose over the entire dosing range and a linear regression with a constrained intercept of 0 ng h mL^−1 at 0 mg kg^−1 gave a slope of 762 ng h mL^−1 per mg kg^−1 of dose (FIG. 2).

[4] = Solubility of bexagliflozin in aqueous media; assay type: physicochemical; details: aqueous media at 37° C.
renal glucose reuptake [5] = experiment: Urinary glucose excretion in cats after DEGEE/glycerol liquid formulations; assay type: in vivo, cat; details: daily oral DEGEE/glycerol liquid formulations F16D-V1 to F16D
Experimental: The pharmacodynamics produced by liquid formulations of bexagliflozin were also evaluated. Cats were fed daily with Whiskas Cat Food in Can (Ocean Fish) and bexagliflozin was delivered orally daily with different formulations derived from F16D as shown in Table 15.
Cats were dosed with F16D-V0 (0.1 mL kg^−1) for two days (vehicle control), and urine samples were collected on the second day for glucose excretion analysis. Similarly, cats were dosed daily with F16D-V1 (0.1 mL kg^−1) from Day 1 to Day 4 at 0.1 mg kg^−1 dose, and urine samples were collected from Day 2 to Day 4 for glucose excretion analysis; cats were dosed daily with F16D-V2 (0.1 mL kg^−1) from Day 5 to Day 8 at 0.3 mg kg^−1 dose, and urine samples were collected from Day 6 to Day 8 for glucose excretion analysis; cats were dosed daily with F16D-V3 (0.1 mL kg^−1) from Day 9 to Day 12 at 1 mg kg^−1 dose, and urine samples collected from Day 10 to Day 12 for glucose excretion analysis; and cats were dosed daily with F16D (0.1 mL kg^−1) from Day 13 to Day 16 at 3 mg kg^−1 dose, and urine samples were collected from Day 14 to Day 16 for glucose excretion analysis.
Urine samples were analyzed using a HITACHI 7600-010 automatic biochemistry analyzer. Urine glucose and creatinine concentrations were measured. […]

[6] = humans; cited from earlier work

Structure (SMILES): OC[C@H]1O[C@@H](c2ccc(Cl)c(Cc3ccc(OCCOC4CC4)cc3)c2)[C@H](O)[C@@H](O)[C@@H]1O [Bexagliflozin, (2S,3R,4R,5S,6R)-2-(4-chloro-3-(4-(2-cyclopropoxyethoxy)benzyl)phenyl)-6-(hydroxymethyl)tetrahydro-2H-pyran-3,4,5-triol]
- total urinary glucose excreted over a period of 24 hours (renal glucose reuptake [1]; cats, capsule, 3 mg kg^−1): 4.78 g
- ED50 of glucosuria (renal glucose reuptake [1]; healthy cats, capsules): 0.56 mg/kg
- ED50 for UGE (renal glucose reuptake [2]): 0.505 mg/kg
- slope of AUC0-24 versus dose ([3]; cats, capsules, linear regression with constrained intercept of 0): 762 ng h mL^−1 per mg kg^−1
- Tmax ([3]; in vivo, po): 0.6 to 1.2 h
- clearance ([3]; in vivo, po): 24.3 ± 4 mL/min/kg
- half-life ([3]; in vivo, po): 2.9 to 5.9 h
- volume of distribution ([3]; in vivo, po): 5.5 to 11.9 L/kg
- solubility [4]: ~500 µg/mL (≈ 1080 µM)
- half-maximal dose (ED50) for daily glucose excretion (renal glucose reuptake [5]): 0.383 mg/kg/day
- maximum daily glucose excretion (predicted) (renal glucose reuptake [5]; 0.1 to 3 mg kg^−1): 7854 mg
- hazard ratio for the reduction in major adverse cardiovascular events [6]: 0.774
